From ChEMBL document CHEMBL1137835, “2-(Anilino)imidazolines and 2-(benzyl)imidazoline derivatives as h5-HT1D serotonin receptor ligands” (Bioorg Med Chem Lett, 2004)

Legend:
Cavia porcellus [1] = species on record: Cavia porcellus; assay: Compound was tested for serotonergic activity on […] induced by electrical stimulation in guinea-pigs
[2] = Oral bioavailability in rat (dose 5 mg/kg); type: ADME, organism-based; details: in vivo
[3] = Volume of distribution of compound in rat body tissue at a dose of 5 mg/kg; type: ADME, organism-based; design: dose 5 mg/kg; details: in vivo
[4] = target: T1, 5-hydroxytryptamine receptor 1B (Homo sapiens, UniProt P28222); assay: Binding affinity towards human 5-hydroxytryptamine 1B receptor
T1 sequence (P28222 whole entry): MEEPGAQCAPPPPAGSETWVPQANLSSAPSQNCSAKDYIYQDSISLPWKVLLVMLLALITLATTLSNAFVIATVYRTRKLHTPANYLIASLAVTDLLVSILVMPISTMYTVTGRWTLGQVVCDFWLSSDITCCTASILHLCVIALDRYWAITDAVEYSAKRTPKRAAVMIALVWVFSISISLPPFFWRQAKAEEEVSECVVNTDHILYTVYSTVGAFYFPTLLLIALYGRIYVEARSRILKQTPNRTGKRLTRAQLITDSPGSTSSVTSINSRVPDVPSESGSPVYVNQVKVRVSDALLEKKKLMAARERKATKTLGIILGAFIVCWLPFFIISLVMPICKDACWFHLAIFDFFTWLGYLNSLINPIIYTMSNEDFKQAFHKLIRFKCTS

[5] = Total plasma clearance in rat at a dose of 5 mg/kg; type: ADME, organism-based; design: dose 5 mg/kg; details: read-out: Total clearance
[6] = Plasma half-life in rat at a dose of 5 mg/kg; type: ADME, organism-based; design: dose 5 mg/kg
[7] = target: T2, 5-hydroxytryptamine receptor 1D (Homo sapiens, UniProt P28221); assay: Binding affinity towards human 5-hydroxytryptamine 1D receptor
T2 sequence (P28221 whole entry): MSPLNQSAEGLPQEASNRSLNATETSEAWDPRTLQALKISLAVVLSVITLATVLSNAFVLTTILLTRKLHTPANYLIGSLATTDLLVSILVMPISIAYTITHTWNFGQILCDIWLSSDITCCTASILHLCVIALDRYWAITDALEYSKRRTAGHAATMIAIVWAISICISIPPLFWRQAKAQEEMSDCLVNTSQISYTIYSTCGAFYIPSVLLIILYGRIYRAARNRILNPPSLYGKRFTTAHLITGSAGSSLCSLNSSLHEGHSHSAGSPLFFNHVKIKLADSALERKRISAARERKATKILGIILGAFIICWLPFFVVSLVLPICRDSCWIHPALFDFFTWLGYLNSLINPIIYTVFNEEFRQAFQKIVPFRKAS

[8] = target: T1, 5-hydroxytryptamine receptor 1B; details: 1000 nM
Description: Percent displacement of radioligand from human 5-hydroxytryptamine 1B receptor at 1000 nM

[9] = target: T2, 5-hydroxytryptamine receptor 1D; details: 1000 nM
Description: Percent displacement of radioligand from human 5-hydroxytryptamine 1D receptor at 1000 nM

[10] = target: Serotonin 1 receptors; 5-HT1B & 5-HT1D (Homo sapiens) (UniProt P28222+P28221); assay: Ratio of 5-hydroxytryptamine 1B receptor to that of 5-hydroxytryptamine 1D receptor was determined; type: protein assay
[11] = target: T3, Alpha-1A adrenergic receptor (Homo sapiens, UniProt P35348); assay: Binding affinity towards human Alpha-1 adrenergic receptor
T3 sequence (P35348 whole entry): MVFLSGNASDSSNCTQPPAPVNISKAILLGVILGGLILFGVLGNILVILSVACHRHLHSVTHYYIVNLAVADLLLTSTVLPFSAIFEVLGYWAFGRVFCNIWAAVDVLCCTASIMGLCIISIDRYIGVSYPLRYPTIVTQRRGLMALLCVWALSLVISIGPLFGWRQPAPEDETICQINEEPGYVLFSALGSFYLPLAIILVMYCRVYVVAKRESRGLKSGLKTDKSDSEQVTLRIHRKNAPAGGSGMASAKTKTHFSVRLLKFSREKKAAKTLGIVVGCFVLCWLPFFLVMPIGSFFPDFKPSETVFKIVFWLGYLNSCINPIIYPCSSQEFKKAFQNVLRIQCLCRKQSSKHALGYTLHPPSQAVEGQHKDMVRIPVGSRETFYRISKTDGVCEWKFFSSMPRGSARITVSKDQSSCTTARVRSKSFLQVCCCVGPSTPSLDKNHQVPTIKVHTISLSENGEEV

Cavia porcellus [12] = assay: Compound was tested for serotonergic activity on […] induced by electrical stimulation in guinea-pigs (3-7 nM/kg)
Oryctolagus cuniculus = species on record: Oryctolagus cuniculus; assay: Agonistic activity tested in isolated rabbit saphenous vein; type: functional
[13] = target: T4, Muscarinic acetylcholine receptor M4 (Homo sapiens) (UniProt P08173); assay: Inhibitory activity against human Muscarinic acetylcholine receptor M4 at 1000 nM
T4 sequence (whole entry): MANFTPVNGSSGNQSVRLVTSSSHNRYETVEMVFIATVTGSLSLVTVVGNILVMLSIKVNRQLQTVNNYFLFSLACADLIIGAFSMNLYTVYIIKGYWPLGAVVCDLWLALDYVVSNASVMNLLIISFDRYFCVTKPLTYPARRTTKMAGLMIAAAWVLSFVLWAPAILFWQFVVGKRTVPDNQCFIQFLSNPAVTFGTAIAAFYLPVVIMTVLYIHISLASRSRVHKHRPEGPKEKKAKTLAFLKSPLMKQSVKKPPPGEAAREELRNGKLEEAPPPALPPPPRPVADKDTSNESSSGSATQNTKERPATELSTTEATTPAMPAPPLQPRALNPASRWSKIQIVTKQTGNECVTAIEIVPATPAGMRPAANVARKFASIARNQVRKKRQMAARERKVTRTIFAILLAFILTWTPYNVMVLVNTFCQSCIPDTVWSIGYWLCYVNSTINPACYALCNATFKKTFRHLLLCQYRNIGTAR

| SMILES | Ki [4] [nM] | Ki [7] [nM] | Selectivity [10] | also measured |
| --- | --- | --- | --- | --- |
| Cc1cc(C(C)(C)C)cc(C)c1CC1=NCCCN1 | 4430 | 33 |  | IC50 (Cavia porcellus [1]): 5 nM/kg; bioavailability [2]: 9.9%; Vd [3]: 1.24 L/kg; clearance [5]: 28.9 mL/min/kg; half-life [6]: 1.03 h |
| Clc1cccc(Cl)c1NC1=NCCN1 |  |  |  | inhibition [8]: < 5%; inhibition [9]: < 5% |
| Cc1cc([N+](=O)[O-])cc(C)c1N=C1NCCN1 | 10200 | 330 |  |  |
| Cc1cc(C(C)(C)C)cc(C)c1NC1=NCCN1 |  |  | 40 |  |
| Cc1cc(C(C)(C)C)cc(C)c1CC1=NCCN1C |  |  |  | IC50 (Cavia porcellus [1]): 10 nM/kg; bioavailability [2]: 42.1%; Vd [3]: 3.97 L/kg; clearance [5]: 66.4 mL/min/kg; half-life [6]: 0.95 h |
| Cc1cc(Br)cc(C)c1N=C1NCCN1 | 1430 | 54 | 26 |  |
| CC(C)(C)c1ccc(C2=NCCN2)cc1 |  | 105 |  | Ki [11]: 91 nM |
| CNS(=O)(=O)Cc1ccc2[nH]cc(CCN(C)C)c2c1 |  |  |  | IC50 (Cavia porcellus [12]): 7 nM/kg |
| Cc1cc(C(C)(C)C)cc(C)c1CC1=NCCN1 [XYLOMETAZOLINE] | 13 |  |  | Ki [11]: 91 nM |
| Clc1cc(I)cc(Cl)c1N=C1NCCN1 [PI-CLONIDINE] | 1980 | 50 | 40 |  |
| Cc1cc([N+](=O)[O-])cc(C)c1NC1=NCCN1 |  |  | 30 |  |
| Cc1cc(C(C)(C)C)cc(C)c1N=C1NCCN1 | 12 | 0.3 |  |  |
| Cc1cccc(C)c1CC1=NCCN1 |  |  | > 4 |  |
| Cc1cc(C(C)(C)C)cc(C)c1CC1=NCCN1Cc1ccccc1 |  |  |  | EC50 (Oryctolagus cuniculus): 780 nM; IC50 (Cavia porcellus [1]): 0.4 nM/kg; bioavailability [2]: 9.3%; Vd [3]: 7.28 L/kg; inhibition [13]: 68%; clearance [5]: 57.6 mL/min/kg; half-life [6]: 1.64 h |
| Cc1cc(Br)cc(C)c1CC1=NCCN1 |  |  | 20 |  |
| Cc1cccc(C)c1N=C1NCCN1 | > 30000 | 2080 | > 10 |  |
| c1ccc(NC2=NCCN2)cc1 | > 30000 | > 30000 |  |  |
